Measured values from patent US8258309B2, “Azapeptide derivatives” (priority 2007, dated 2012).

Key:
HIV-1RF = assay: HIV anti-viral activity in CEM-SS cells infected with HIV-1 (XTT); assay type: cell-based
Method: The HIV antiviral activity of compound of the present invention was tested in CEM-SS cells infected with HIV-1. CEM-SS cells were passaged in T-75 flasks in RPMI 1640 medium supplemented with 10% heat inactivated fetal bovine serum, 2 mmol/L L-glutamine, 100 U/mL penicillin and 100 flg/mL streptomycin prior to use in the antiviral assay. On the day preceding the assay, the cells were split 1:2 to assure they were in an exponential growth phase at the time of infection. Total cell and viability quantification was performed using a hemocytometer and Trypan Blue dye exclusion. Cell viability was greater than 95% for the cells to be utilized in the assay. The cells were resuspended at 5×10^4 cells per mL in tissue culture medium and added to the drug-containing microtiter plates in a volume of 50 μL.
The virus used for the assay was the lymphocyte-tropic virus strain HIV-IRF. The virus was obtained from the NIH AIDS Research and Reference Reagent Program and stock virus pools were produced in CEM-SS cells. A pre-titered aliquot of virus was removed from the freezer (−80° C.) and allowed to thaw slowly to room temperature in a biological safety cabinet. Virus was resuspended and diluted into tissue culture medium such that the amount of virus added to each well in a volume of 50 μL was the amount determined to yield 85 to 95% cell killing at 6 days post-infection.
Each plate contains cell control wells (cells only), virus control wells (cells plus virus), compound toxicity wells (cells plus compound only), compound colorimetric control wells (compound only) as well as experimental wells (compound plus cells plus virus). Samples were tested in triplicate with eleven half-log dilutions per compound starting at 0.1 μM of compound. Compounds 104, 120 and 122 were tested, as was atazanavir and AZT. […]
Following incubation at 37° C. in a 5% CO2 incubator, the test plates were stained with the tetrazolium dye XTT (2,3-bis(2-methoxy-4-nitro-5sulfophenyl)-5-[(phenylamino)carbonyl]-2H-tetrazolium hydroxide). XTT-tetrazolium was metabolized by the mitochondrial enzymes of metabolically active cells to a soluble formazan product, allowing rapid quantitative analysis of the inhibition of HIV induced cell killing by anti-HIV test substances. XTT solution was prepared daily as a stock of 1 mg/mL in RPMI 1640. Phenazine methosulfate (PMS) solution was prepared at 0.15 mg/mL in PBS and stored in the dark at −20° C. XTT/PMS stock was prepared immediately before use by adding 40 μL of PMS per mL of XTT solution. Fifty microliters of XTT/PMS was added to each well of the plate and the plate was reincubated for 4 hours at 37° C. Plates were sealed with adhesive plate sealers and shaken gently or inverted several times to mix the soluble formazan product and the plate was read spectrophotometrically at 450/650 nm with a Molecular Devices Vmax plate reader.
Raw data was collected from the Softmax Pro 4.6 software and imported into a Microsoft Excel 2003 spreadsheet for analysis by linear curve fit calculations.

in vivo = settings: chimpanzee, po
Method: Four chimps (two male and two female) were used in this study and were fasted overnight prior to administration of the compound solution. Animals were sedated with ketamine and/or telazol prior to dosing. Intravenous dosing was achieved by IV infusion over 30 minutes.
Approximately 4.5 mL of blood was collected into vacutainer tubes with sodium heparin as an anticoagulant at 0 (preinfusion), 15 min., 29.5 min (immediately before the end of the infusion), and then at 6, 15, 30, and 45 minutes, and 1, 2, 4, 6, 8, 10, 12, 24 hours after the infusion is stopped. A similar procedure was used to collect blood after oral dosing with samples taken at 0 (predose), 15, and 30 minutes, and at 1, 1.5, 2, 4, 6, 8, 10, 12, 24 hours postdose. Following sample collection, the vacutainer tubes were rocked by hand several times to insure adequate mixing. Blood samples were placed immediately on wet ice and centrifuged within 1 hour from time of collection. Following centrifugation, the resulting plasma was stored frozen at −70° C. until analysis. The results are summarized in FIGS. 4 and 5 and tables 6 and 7.
Run B: Same as Run A, except the dose was 150 mg orally of each of atazanavir and compounds 114 and 120, and the vehicle was 10 percent ethanol, 40 percent polypropylglycol in 2.5 percent citric acid.

[1] = Human immunodeficiency virus 1, CEM-SS, +0.5 mg/mL AAGP
[2] = Human immunodeficiency virus 1, CEM-SS, +10 mg/mL HAS
[3] = Human immunodeficiency virus 1, CEM-SS, +AAGP + HSA
[4] = Human immunodeficiency virus 1, CEM-SS, No Serum Protein Added (cell culture medium)

| EC50 (HIV-1RF; +10 mg/mL HAS) | EC50 (HIV-1RF; [1]) | EC50 (HIV-1RF; [2]) | EC50 (HIV-1RF; [3]) | EC50 (HIV-1RF; [4]) | EC50 (HIV-1RF; No Serum Protein Added (cell culture medium)) | concentration detected intact in urine (in vivo; 24 h) | concentration at 24 h (in vivo; concentration detected intact in urine) | SMILES | fold less potent in the presence of HSA than in cell culture medium alone (HIV-1RF; 10 mg/mL HSA versus cell culture medium) |
| --- | --- | --- | --- | --- | --- | --- | --- | --- | --- |
| 0.8 nM | 2 nM | 0.9 nM | 6 nM | < 0.4 nM | 0.4 nM | – | – | [2H]C([2H])([2H])OC(=O)N[C@H](C(=O)N[C@@H](Cc1ccccc1)[C@@H](O)CN(Cc1ccc(-c2ccccn2)cc1)NC(=O)[C@@H](NC(=O)OC([2H])([2H])[2H])C(C([2H])([2H])[2H])(C([2H])([2H])[2H])C([2H])([2H])[2H])C(C([2H])([2H])[2H])(C([2H])([2H])[2H])C([2H])([2H])[2H] [Compound 122, 1,14-Di(methyl-d3)(3S,8S,9S,12S)-3,12-bis[(1,1-dimethylethyl)-d9]-8-hydroxy-4,11-dioxo-9-(phenylmethyl)-6-[[4-(2-pyridinyl)phenyl]methyl]-2,5,6,10,13-pentaazatetradecanedioate] | two- to greater than three-fold less potent |
| – | 4 nM | 4 nM | 8 nM | 1 nM | – | 3260 ng/mL | 1640 ng/mL | COC(=O)N[C@H](C(=O)N[C@@H](Cc1ccccc1)[C@@H](O)CN(Cc1ccc(-c2ccccn2)cc1)NC(=O)[C@@H](NC(=O)OC)C(C)(C)C)C(C)(C)C [Atazanavir, atazanavir, reference compound] | – |
